Test results from patent US7411039B2, “GLP-2 compounds, formulations, and uses thereof” (Novo Nordisk A/S, priority 2002, dated 2008).
Read-outs that look alike come from different tables or passages of the source.

How the values were obtained:
[1] = system: growth of the small intestine in mice; assay type: in vivo; settings: for Small intestinal weight, Mean ± SD / Small intestinal weight/body weight, Mean ± SD: group mean
From the text: Bioassay in Mice. Dose-Response Study of GLP-2 Derivatives. • Table 3. Model parameter estimates following nonlinear regression analysis of dose and small intestinal weights relative to body weight. • Table 4. Model parameter estimates following nonlinear regression analysis of dose and small intestinal weights. • Table 5. Body weight, small intestinal weight and relative small intestinal weight of mice treated with L17K(3-(tetradecanoylamino)propionyl)/K30R-[…]. • Table 6. […]. Body weight, small intestinal weight and relative small intestinal weight of mice treated with A2G-[…]. • Table 8. Body weight, small intestinal weight and relative small intestinal weight of control mice.
The following GLP-2 derivatives and analog were tested: • 1. L17K(3-(tetradecanoylamino)propionyl)/K30R-[…]. • 2. L17K(3-(hexadecanoylamino)propionyl)/K30R-[…]. • 3. A2G-[…]. All derivatives were dissolved and diluted in buffer containing:
Disodiumhydrogenphosphate 1.42 mg/ml, Mannitol 36.9 mg/ml, Phenol 5 mg/ml, pH 8.0.
189 female C57b1 mice were used in the study. All animals were divided into four groups:
• Group 1: Controls • Group 2: L17K(3-(tetradecanoylamino)propionyl)/K30R-[…] • Group 3: L17K(3-(hexadecanoylamino)propionyl)/K30R-[…] • Group 4: A2G-[…] Dosing
All animals received a daily subcutaneous injection of 100 pi for 10 days with the following doses:
At Day 10 the animals were weighted before they were sacrificed. The intestine was carefully removed from each animal and the small intestine dissected, rinsed with saline and weighted.
Body weight, small intestinal weight and small intestinal weight relative to body weight were reported for all animals and used generating the dose-response relationship. The treatment-induced increase in both absolute and relative small intestinal weight is calculated for each treatment group, since this is considered the pharmacologically relevant efficacy parameter.
A generalised Michaelis-Menten model, with shape factor γ corresponding to the Hillslope in the semilogarithmic dose-response curve and E0 representing the background efficacy level at D=0, was used as dose-response model. Emax is the maximal effect observed and ED50 is the dose that gives an effect equal to 50% of Emax. The model was used because of the higher flexibility compared to a four parameter logistic dose-response model (1). The model was fitted to data using nonlinear regression in order to determine estimates for Emax, ED50, γ and E0.
[formula] The goodness of fit was evaluated by visual inspection of plots showing observed data points together with fitted curves and residuals plots. Parameter estimates are presented together with CV % and 95% C.I.
In order to account for the variability in the background efficacy level, control data were included in the nonlinear regression analysis as D=0 for all three treatment groups.
The nonlinear regression analyses were performed using WinNonlin Professional, version 3.1, Pharsight. The nonlinear regression was performed using the Gauss-Newton (Levenberg and Hartley) algorithm.

[2] = system: Dextran sulfate (DS)-induced colitis; settings: 350 ng or 750 ng s.c. twice daily for 9-10 days, cited from earlier work
[3] = background efficacy level at D=0, nonlinear regression of dose-response, mice, daily s.c. for 10 days
[4] = dose level A, 33 μg daily s.c. for 10 days
[5] = dose level B, 16.5 μg daily s.c. for 10 days
[6] = dose level C, 8.25 μg daily s.c. for 10 days
[7] = dose level D, 4.125 μg daily s.c. for 10 days
[8] = dose level E, 2.063 μg daily s.c. for 10 days
[9] = dose level F, 1.031 μg daily s.c. for 10 days
[10] = dose level G, 0.512 μg daily s.c. for 10 days
[11] = nonlinear regression of dose-response
[12] = nonlinear regression of dose-response, mice, daily s.c. for 10 days
[13] = treatment-induced increase, secondary parameter of curve fitting

## CC[C@H](C)[C@H](NC(=O)[C@H](Cc1ccccc1)NC(=O)[C@H](CC(=O)O)NC(=O)[C@H](CCCNC(=N)N)NC(=O)[C@H](C)NC(=O)[C@H](C)NC(=O)[C@H](CC(C)C)NC(=O)[C@H](CC(N)=O)NC(=O)[C@H](CC(=O)O)NC(=O)[C@H](CC(C)C)NC(=O)[C@@H](NC(=O)[C@@H](NC(=O)[C@H](CC(N)=O)NC(=O)[C@H](CCSC)NC(=O)[C@H](CCC(=O)O)NC(=O)[C@H](CC(=O)O)NC(=O)[C@H](CO)NC(=O)[C@H](Cc1ccccc1)NC(=O)[C@H](CO)NC(=O)CNC(=O)[C@H](CC(=O)O)NC(=O)CNC(=O)[C@@H](N)Cc1c[nH]cn1)[C@@H](C)O)[C@@H](C)CC)C(=O)N[C@@H](CC(N)=O)C(=O)N[C@@H](Cc1c[nH]c2ccccc12)C(=O)N[C@@H](CC(C)C)C(=O)N[C@H](C(=O)N[C@@H](CCC(N)=O)C(=O)N[C@H](C(=O)N[C@@H](CCCCN)C(=O)N[C@H](C(=O)N[C@H](C(=O)N[C@@H](CC(=O)O)C(=O)O)[C@@H](C)O)[C@@H](C)CC)[C@@H](C)O)[C@@H](C)CC [A2G-GLP-2(1-33)]
[1]; [3]
  E0, parameter estimate (CV %), small intestinal weight: 1.1095 (2.0) g
  E0, parameter estimate (CV %), small intestinal weight relative to body weight: 0.0425 (2.4)
[1]; [4]
  Small intestinal weight, Mean ± SD: 1.2300 ± 0.1602 g
  Small intestinal weight/body weight, Mean ± SD: 0.0501 ± 0.0057
[1]; [5]
  Small intestinal weight, Mean ± SD: 1.1775 ± 0.1337 g
  Small intestinal weight/body weight, Mean ± SD: 0.0489 ± 0.0042
[1]; [6]
  Small intestinal weight, Mean ± SD: 1.2463 ± 0.1235 g
  Small intestinal weight/body weight, Mean ± SD: 0.0484 ± 0.0052
[1]; [7]
  Small intestinal weight, Mean ± SD: 1.1713 ± 0.1687 g
  Small intestinal weight/body weight, Mean ± SD: 0.0448 ± 0.0054
[1]; [8]
  Small intestinal weight, Mean ± SD: 1.0750 ± 0.1124 g
  Small intestinal weight/body weight, Mean ± SD: 0.0443 ± 0.0027
[1]; [9]
  Small intestinal weight, Mean ± SD: 1.1688 ± 0.0923 g
  Small intestinal weight/body weight, Mean ± SD: 0.0461 ± 0.0041
[1]; [10]
  Small intestinal weight, Mean ± SD: 1.1075 ± 0.1014 g
  Small intestinal weight/body weight, Mean ± SD: 0.0436 ± 0.0036
[1]; [11]
  γ (shape factor, Hillslope), parameter estimate (CV %), small intestinal weight: 8.4169 (1869)
  γ (shape factor, Hillslope), parameter estimate (CV %), small intestinal weight relative to body weight: 0.6625 (109)
[1]; [12]
  Emax, parameter estimate (CV %), small intestinal weight: 1.2180 (2.3) g
  Emax, parameter estimate (CV %), small intestinal weight relative to body weight: 0.0548 (33.3)
[1]; [13]
  Emax − E0, parameter estimate (CV %), small intestinal weight: 0.1085 (34.8) g
  Emax − E0, parameter estimate (CV %), small intestinal weight relative to body weight: 0.0123 (151)
[2]; DS mice
  histology of colon: exhibited a greater proportion of intact mucosal epithelium, increased colon length, crypt depth and mucosal area
[2]; mice receiving 5% DS in the drinking water
  body weight loss: lost significantly less body weight
